According to US12624096B2, “Anti-tau antibodies and methods of use thereof” (GTInvent Limited, priority 2020, dated 2026):

How the values were obtained:
dGAE aggregates = dGAE aggregates (Homo sapiens, UniProt P10636); test: Epitope occlusion sandwich ELISA (423 mAb capture) of dGAE aggregated with/without LMTM; format: binding; settings: LMTM 1:5 ratio
Procedure: During dGAE aggregation in vitro, scAb binding regions on dGA/dGAE are ‘hidden’ or ‘occluded’ which leads to a loss of immunoreactivity in aggregation samples. Here we have shown the occlusion of binding regions in aggregated dGAE samples and the recovery of immunoreactivity in the presence of LMTM, a tau-aggregation inhibitor. For preparing the aggregates, 10 μl 10 mM DTT was added to 1000 μl 100 μM dGAE and agitated with/without LMTM (1:5 ratio) at 700 rpm for 24 h at 37° C. […] The pellet was then resuspended in half the original volume for further experiments. […] Doubling dilutions of dGAE aggregate ‘total’, ‘supernatant’ and ‘pellet’ samples at 10 μg/ml starting concentration were added to designated wells in doubling dilutions in 1×PBS, dGAE monomer (non-aggregated) was included as assay control. All double dilutions were done in final volumes of 100 μl. This was left to incubate on lab bench for 1 h followed by the addition of test scAbs at 10 μg/ml. Anti-HuCk HRP labelled secondary antibody was added as described previously and ELISA data generated is represented using the graph below.

plasma tau = test: Plasma tau (Simoa) in L66+/- mice treated with LMTM; format: in vivo, mouse
Procedure: The effect of the tau aggregation inhibitor LMTM on the levels of plasma tau in a L66^+/− mouse line was investigated with two assays, both utilising the 3-step Simoa® protocols described above. Using the human specific NT1 assay (BT2 capture with Tau12 detection), low levels of tau (0.41±0.09 pg/ml) were detected in the plasma of 5-month-old L66^+/− that were treated with vehicle control solution (FIG. 50A). At the same time, an increase in tau levels was measured in the plasma of L66^+/− mice that had received an oral administration of LMTM (15 mg/kg) during the time period (1.28±0.11 pg/ml).
This hypothesis was supported by our core-proline antibody assay in which S1D12 antibody coated capture beads and BT2 detector was used (FIG. 50B). This assay detects both human and mouse tau which explains the higher levels of tau detected.

dGAE = dGAE (Homo sapiens, UniProt P10636); test: Thioflavin T dGAE aggregation inhibition assay; format: biochemical; settings: 10 μM test protein; 100 μM dGAE, 10 mM DTT, 24 h
Chain of dGAE (P10636 614-708): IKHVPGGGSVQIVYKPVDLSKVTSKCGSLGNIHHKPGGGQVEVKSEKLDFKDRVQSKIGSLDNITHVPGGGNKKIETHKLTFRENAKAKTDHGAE
Procedure: By incubating 100 μM dGAE and 10 mM DTT at 37° C., on a thermomixer at 700 rpm for 24 hours, “pathology mimicking” aggregates which have the morphology of paired helical filaments are formed. This aggregation can be quantified by adding a final concentration of 12.5 μM Thioflavin T (fluorescent dye) which binds to fibril-like β-sheets. Fluorescence was measured with a constant emission wavelength of 480 nm and a scanning excitation wavelength of 350-470 nm using a Varian Cary Eclipse fluorescence spectrophotometer. Maximal fluorescence measurements were used as an indicator of dGAE aggregation (approximately 450 nm excitation). The assay was optimised using a range of S1D12 scAb concentrations (0.04 to 25 µM) and tested for levels of aggregation inhibition as shown in FIG. 35.
Based on FIG. 35, 10 μM scAb was deemed an adequate concentration to compare and rank individual scAb-mediated dGAE aggregation inhibition events. […] A similar inhibition (40%) was seen using 10 μM bovine serum albumin as a negative control (data not shown).

Chain of dGAE aggregates (P10636 614-708): as above

Compound | effect of LMTM on dGAE aggregation and immunoreactivity (dGAE aggregates) | plasma tau, NT1 assay (BT2 capture with Tau12 detection) (plasma tau; 5-month-old L66+/- mice, oral LMTM 15 mg/kg) | plasma tau, core-proline assay (S1D12 capture beads, BT2 detector) (plasma tau; L66+/- mice, LMTM 15 mg/kg) | inhibition of dGAE aggregation (dGAE)
CN(C)c1ccc2c(c1)Sc1cc(N(C)C)ccc1N2.CS(=O)(=O)O.CS(=O)(=O)O [LMTM] | preventing the aggregation event, leading to an increased immunoreactivity | 1.28 ± 0.11 pg/mL | 142.08 ± 12.08 pg/mL | 
bovine serum albumin: negative control protein in thioflavin T assay [reference compound] |  |  |  | 40%
